In publication PMC11694061 (Cancer Research, 2024):

How the values were obtained:
K562 cells = experiment: Proliferation, K562; type: cell-based, human; conditions: Homo sapiens, K562; Table S1 screening; read-out: IC50 (cell proliferation inhibition in K562 cells)
Description: Cells were inoculated onto 96-well plates and treated with compounds in serial dilutions for 3 or 5 days. […] The cell viability of primary patient samples was tested using the CellTiter-Glo Luminescent Assay kit (G7573, Promega) according to the manufacturer’s instructions. […] The optical density (OD) values were obtained using a SPARK microplate reader (Tecan). IC50 was calculated using GraphPad Prism 8.0.2 (nonlinear regression analysis with four parameters). Drug synergy was evaluated with combination index (CI) values using CalcuSyn Demo Version 2.0 software. CI > 1 indicates antagonism, CI < 1 indicates synergy, and CI = 1 indicates additivity.

SOS1 in K562 cells = target: T1, SOS1 in K562 cells (Homo sapiens, UniProt Q07889); experiment: SOS1 degradation in K562 cells (Western blot); type: cell-based
T1 construct: endogenous in cells; host or cells: K562
T1 sequence (Q07889 1-1333): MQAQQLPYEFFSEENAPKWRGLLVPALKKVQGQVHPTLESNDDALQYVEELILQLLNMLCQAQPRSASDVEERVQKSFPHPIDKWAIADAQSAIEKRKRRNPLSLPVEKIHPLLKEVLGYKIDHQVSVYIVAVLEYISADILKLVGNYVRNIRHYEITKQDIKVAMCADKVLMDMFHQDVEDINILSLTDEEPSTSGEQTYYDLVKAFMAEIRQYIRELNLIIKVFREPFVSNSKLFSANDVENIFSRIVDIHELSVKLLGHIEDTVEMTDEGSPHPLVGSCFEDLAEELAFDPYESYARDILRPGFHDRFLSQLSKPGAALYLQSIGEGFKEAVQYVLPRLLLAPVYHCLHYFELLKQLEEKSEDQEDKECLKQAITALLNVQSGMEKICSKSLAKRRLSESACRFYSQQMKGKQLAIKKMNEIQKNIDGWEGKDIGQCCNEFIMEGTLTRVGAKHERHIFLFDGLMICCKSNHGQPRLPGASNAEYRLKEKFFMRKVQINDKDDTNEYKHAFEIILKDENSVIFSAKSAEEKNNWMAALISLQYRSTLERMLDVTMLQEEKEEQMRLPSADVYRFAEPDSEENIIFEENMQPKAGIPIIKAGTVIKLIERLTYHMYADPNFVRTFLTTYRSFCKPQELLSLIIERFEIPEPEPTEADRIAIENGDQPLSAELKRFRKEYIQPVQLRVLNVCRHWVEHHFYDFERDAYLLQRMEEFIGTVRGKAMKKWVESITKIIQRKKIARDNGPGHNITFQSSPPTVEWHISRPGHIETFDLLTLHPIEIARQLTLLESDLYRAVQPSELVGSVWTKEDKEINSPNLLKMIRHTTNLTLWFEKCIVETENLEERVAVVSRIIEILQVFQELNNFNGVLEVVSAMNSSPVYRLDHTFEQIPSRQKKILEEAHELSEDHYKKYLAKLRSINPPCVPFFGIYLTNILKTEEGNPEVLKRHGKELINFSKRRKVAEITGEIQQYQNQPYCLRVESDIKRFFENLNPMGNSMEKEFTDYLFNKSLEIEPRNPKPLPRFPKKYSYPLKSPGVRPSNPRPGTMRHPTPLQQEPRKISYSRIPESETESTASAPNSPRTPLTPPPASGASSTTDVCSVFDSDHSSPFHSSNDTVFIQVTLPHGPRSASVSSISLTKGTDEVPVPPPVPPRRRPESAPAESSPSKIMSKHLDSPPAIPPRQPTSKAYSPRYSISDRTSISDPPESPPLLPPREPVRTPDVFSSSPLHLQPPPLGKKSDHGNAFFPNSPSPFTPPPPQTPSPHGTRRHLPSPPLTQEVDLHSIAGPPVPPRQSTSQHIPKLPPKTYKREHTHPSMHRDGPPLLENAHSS
From the text: After treatment, the cells were harvested with SDS lysis buffer, and SDS-PAGE gels were used to split the proteins in the lysate solutions. […] AB_2758039).

Row | Structure (SMILES) | IC50 (K562 cells) [µM] | percent SOS1 degradation at 0.1 µM (SOS1 in K562 cells) [%] | percent SOS1 degradation at 1 µM (SOS1 in K562 cells) [%]
1 | COc1cc2nc(C)nc(N[C@H](C)c3cc(N)cc(C(F)(F)F)c3)c2cc1OC1CCN(C(=O)CCCSc2cccc3c2CN(C2CCC(=O)NC2=O)C3=O)CC1 (stereo partly drawn) [SIAIS561133] | 1.67 ± 0.0177 | -26.7 ± 1.7 | -4 ± 11.7
2 | COc1cc2nc(C)nc(N[C@H](C)c3cc(N)cc(C(F)(F)F)c3)c2cc1OC1CCN(C(=O)CCCCSc2cccc3c2CN(C2CCC(=O)NC2=O)C3=O)CC1 (stereo partly drawn) [SIAIS561134] | 3.6 ± 0.103 | 5.2 ± 12.8 | 14.2 ± 11.1
3 | COc1cc2nc(C)nc(N[C@H](C)c3cc(N)cc(C(F)(F)F)c3)c2cc1OC1CCN(C(=O)CCCCCSc2cccc3c2CN(C2CCC(=O)NC2=O)C3=O)CC1 (stereo partly drawn) [SIAIS561135] | 1.85 ± 0.455 | 11.3 ± 4.8 | 12.7 ± 6.3
4 | COc1cc2nc(C)nc(N[C@H](C)c3cc(N)cc(C(F)(F)F)c3)c2cc1OC1CCN(C(=O)CCCCCCSc2cccc3c2CN(C2CCC(=O)NC2=O)C3=O)CC1 (stereo partly drawn) [SIAIS561136] | 2.53 ± 0.261 | 18.2 ± 6.2 | 49.3 ± 2.2
5 | COc1cc2nc(C)nc(N[C@H](C)c3cc(N)cc(C(F)(F)F)c3)c2cc1OC1CCN(C(=O)CCCCCCCSc2cccc3c2CN(C2CCC(=O)NC2=O)C3=O)CC1 (stereo partly drawn) [SIAIS561139] | 2.75 ± 0.36 | -15.2 ± 2 | 7.7 ± 4.3
6 | COc1cc2nc(C)nc(N[C@H](C)c3cc(N)cc(C(F)(F)F)c3)c2cc1O[C@H]1CCN(CCCCCCCCCCCCSc2cccc3c2CN(C2CCC(=O)NC2=O)C3=O)C1 (stereo partly drawn) [SIAIS562020] | 0.822 ± 0.083 | 30.4 ± 0.3 | 86.4 ± 0.4
7 | COc1cc2nc(C)nc(N[C@H](C)c3cc(N)cc(C(F)(F)F)c3)c2cc1OC1CCN(C(=O)CCCCCCCCSc2cccc3c2CN(C2CCC(=O)NC2=O)C3=O)CC1 (stereo partly drawn) [SIAIS562080] | 4.95 ± 0.412 | -46.9 ± 11 | 5.5 ± 3.2

Continued, values first:

Row | IC50 (K562 cells) [µM] | percent SOS1 degradation at 0.1 µM (SOS1 in K562 cells) [%] | percent SOS1 degradation at 1 µM (SOS1 in K562 cells) [%] | Structure (SMILES)
8 | 3.06 ± 1.1 | 3.6 ± 3.2 | 15.7 ± 3 | COc1cc2nc(C)nc(N[C@H](C)c3cc(N)cc(C(F)(F)F)c3)c2cc1OC1CCN(C(=O)CCCCCCCCCSc2cccc3c2CN(C2CCC(=O)NC2=O)C3=O)CC1 (stereo partly drawn) [SIAIS561137]
9 | 8.97 ± 0.146 | -14.6 ± 1.1 | 11 ± 0.6 | COc1cc2nc(C)nc(N[C@H](C)c3cc(N)cc(C(F)(F)F)c3)c2cc1OC1CCN(C(=O)CCCCCCCCCCSc2cccc3c2CN(C2CCC(=O)NC2=O)C3=O)CC1 (stereo partly drawn) [SIAIS561138]
10 | 0.846 ± 0.157 | 4.6 ± 1.8 | 38.7 ± 1.1 | COc1cc2nc(C)nc(N[C@H](C)c3cc(N)cc(C(F)(F)F)c3)c2cc1O[C@H]1CCN(CCCCCCCCCCCSc2cccc3c2CN(C2CCC(=O)NC2=O)C3=O)C1 (stereo partly drawn) [SIAIS562019]
11 | 7.08 ± 0.216 | 44.4 ± 6.5 | 49.7 ± 14 | COc1cc2nc(C)nc(N[C@H](C)c3cc(N)cc(C(F)(F)F)c3)c2cc1O[C@H]1CCN(C(=O)CCCCCCCCSc2cccc3c2CN(C2CCC(=O)NC2=O)C3=O)C1 (stereo partly drawn) [SIAIS562079]
12 | 4.68 ± 1.21 | 21.3 ± 0.5 | 71 ± 1.6 | COc1cc2nc(C)nc(N[C@H](C)c3cc(N)cc(C(F)(F)F)c3)c2cc1O[C@H]1CCN(C(=O)CCCCCCCCCCCSc2cccc3c2CN(C2CCC(=O)NC2=O)C3=O)C1 (stereo partly drawn) [SIAIS562082]
13 | 4.13 ± 0.34 | -5.4 ± 2.2 | 35.5 ± 1 | COc1cc2nc(C)nc(N[C@H](C)c3cc(N)cc(C(F)(F)F)c3)c2cc1OC1CCN(C(=O)CCCCCCCCCCCSc2cccc3c2CN(C2CCC(=O)NC2=O)C3=O)CC1 (stereo partly drawn) [SIAIS562083]
